Measured values: patent US20200022995A1, “Novel Immunodulating Small Molecules” (AyuVis Research, Inc., priority 2018, published 2020)

Legend:
[1] = test system: LPS-induced lung injury in mice; test: LPS-induced ALI model; format: in vivo, C57BL/6 mice; settings: IP
From the text: Male C57BL/6 mice (Jackson Laboratories,) 12-15 weeks old, 25-28 gms, housed up to 5 per cage were used.
The lungs were sectioned for histopathological assessment after H/E staining while the BAL fluid was used to detect total cell counts (neutrophils and macrophages) and measure protein (that exudes by leakage).

THP-1 cells = test: Monocyte differentiation, phagocytosis and intracellular killing of Pseudomonas aeruginosa in THP-1 cells; format: cell-based, human
From the text: Two of these compounds 8 and 32 stimulated monocyte differentiation into macrophages, increased phagocytosis of Pseudomonas aeruginosa (FIG. 18) and increased intracellular killing of bacteria (FIG. 19). These compounds have potential to be used as vaccine adjuvants and in combination with existing antibiotic for prophylactic treatment such as in cystic fibrosis patients.

TLR9 = molecular target: T1, TLR9 (Homo sapiens, UniProt Q9NR96); test: IFN-α ELISA in hPBMC with TLR9 ligand ODN2216; format: cell-based; settings: 48 h
T1 construct: endogenous in cells; host or cells: hPBMC
T1 sequence (Q9NR96 26-1032): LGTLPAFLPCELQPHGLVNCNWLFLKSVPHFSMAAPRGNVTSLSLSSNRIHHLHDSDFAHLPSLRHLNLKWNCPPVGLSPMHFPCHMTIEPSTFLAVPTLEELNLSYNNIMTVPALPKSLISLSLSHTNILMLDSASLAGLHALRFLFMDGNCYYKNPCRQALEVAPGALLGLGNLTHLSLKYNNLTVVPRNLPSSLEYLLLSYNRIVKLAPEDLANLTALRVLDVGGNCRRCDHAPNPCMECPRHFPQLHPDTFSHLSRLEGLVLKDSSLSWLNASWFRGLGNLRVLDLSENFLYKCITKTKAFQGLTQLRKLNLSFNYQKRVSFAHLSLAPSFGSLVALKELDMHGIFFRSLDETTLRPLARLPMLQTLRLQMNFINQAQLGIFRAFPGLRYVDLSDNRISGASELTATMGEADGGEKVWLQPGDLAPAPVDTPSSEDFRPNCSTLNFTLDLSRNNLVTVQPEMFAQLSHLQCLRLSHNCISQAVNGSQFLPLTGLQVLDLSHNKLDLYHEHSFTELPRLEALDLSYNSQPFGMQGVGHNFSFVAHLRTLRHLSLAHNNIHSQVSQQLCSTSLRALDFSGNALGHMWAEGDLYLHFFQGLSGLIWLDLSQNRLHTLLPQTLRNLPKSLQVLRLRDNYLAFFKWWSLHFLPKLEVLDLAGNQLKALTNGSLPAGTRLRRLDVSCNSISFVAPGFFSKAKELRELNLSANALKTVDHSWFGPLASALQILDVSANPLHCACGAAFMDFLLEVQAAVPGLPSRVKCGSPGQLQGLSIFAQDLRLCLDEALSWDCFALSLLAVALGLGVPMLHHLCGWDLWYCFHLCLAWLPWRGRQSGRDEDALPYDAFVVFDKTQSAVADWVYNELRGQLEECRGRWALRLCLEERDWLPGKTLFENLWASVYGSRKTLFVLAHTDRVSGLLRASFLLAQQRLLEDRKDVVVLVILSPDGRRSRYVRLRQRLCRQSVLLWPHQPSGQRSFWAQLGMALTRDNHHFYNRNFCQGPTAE
Procedure: Compound 8 antagonizes the TLR9 activities and downregulates the production of IFN-α in combination with TLR9 ligand ODN2216 in hPBMC after 48 h of treatment as detected by ELISA (FIG. 11).

TLR6 = molecular target: T2, TLR6 (Homo sapiens, UniProt Q9Y2C9); test: IL-6 ELISA in hPBMC with TLR6 ligand Pam2CSK4; format: cell-based; settings: 24 h
T2 construct: in combination with TLR6 ligand Pam2CSK4 in hPBMC after 24 h of treatment; endogenous in cells; host or cells: hPBMC
T2 sequence (Q9Y2C9 32-796): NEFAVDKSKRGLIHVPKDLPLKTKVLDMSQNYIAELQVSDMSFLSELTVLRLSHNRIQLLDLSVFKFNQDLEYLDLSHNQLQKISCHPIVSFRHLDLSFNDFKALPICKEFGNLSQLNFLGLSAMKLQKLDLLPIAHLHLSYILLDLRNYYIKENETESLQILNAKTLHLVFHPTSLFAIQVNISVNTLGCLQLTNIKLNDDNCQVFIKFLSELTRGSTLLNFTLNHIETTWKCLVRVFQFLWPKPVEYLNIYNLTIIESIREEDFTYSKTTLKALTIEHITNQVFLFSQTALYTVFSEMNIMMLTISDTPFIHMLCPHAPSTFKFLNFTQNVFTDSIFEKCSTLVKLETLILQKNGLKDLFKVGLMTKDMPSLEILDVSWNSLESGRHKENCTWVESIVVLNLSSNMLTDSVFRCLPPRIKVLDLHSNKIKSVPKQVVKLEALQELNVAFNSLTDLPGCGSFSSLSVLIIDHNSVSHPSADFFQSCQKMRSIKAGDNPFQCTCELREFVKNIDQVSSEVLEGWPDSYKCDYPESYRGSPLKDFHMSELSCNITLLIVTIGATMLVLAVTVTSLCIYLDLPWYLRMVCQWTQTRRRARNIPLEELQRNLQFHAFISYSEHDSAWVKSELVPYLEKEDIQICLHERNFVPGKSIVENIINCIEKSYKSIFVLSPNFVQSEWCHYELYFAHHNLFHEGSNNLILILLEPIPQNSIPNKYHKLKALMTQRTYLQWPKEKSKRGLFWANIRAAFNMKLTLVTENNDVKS
Procedure: Compound 8 stimulates the TLR6 activities and upregulates the production of IL-6 cytokine in combination with TLR6 ligand Pam2CSK4 in hPBMC after 24 h of treatment as detected by ELISA (FIG. 9).

hPBMC = test: Cytotoxicity in hPBMC (MTT); format: cell-based, human; settings: 0.1, 1.0, 10, 100 and 1000 μM, 24 h
Procedure: The cells were treated with compounds and incubated for 24 h. Cell viability was assessed using MTT cell proliferation kit (Promega). All the compounds were not toxic to hPMBC (FIG. 12).

TLR4 = TLR4 (Homo sapiens, UniProt O00206); test: TLR4 inhibitory and activating activity in THP-1 cells; format: cell-based; parameters: endogenous in cells; host or cells: THP-1 monocytes, PMA-stimulated
neonatal pups with BPD = test: Hyperoxia mouse model of BPD (newborn pups); format: in vivo

Chain of TLR4 (O00206 24-839): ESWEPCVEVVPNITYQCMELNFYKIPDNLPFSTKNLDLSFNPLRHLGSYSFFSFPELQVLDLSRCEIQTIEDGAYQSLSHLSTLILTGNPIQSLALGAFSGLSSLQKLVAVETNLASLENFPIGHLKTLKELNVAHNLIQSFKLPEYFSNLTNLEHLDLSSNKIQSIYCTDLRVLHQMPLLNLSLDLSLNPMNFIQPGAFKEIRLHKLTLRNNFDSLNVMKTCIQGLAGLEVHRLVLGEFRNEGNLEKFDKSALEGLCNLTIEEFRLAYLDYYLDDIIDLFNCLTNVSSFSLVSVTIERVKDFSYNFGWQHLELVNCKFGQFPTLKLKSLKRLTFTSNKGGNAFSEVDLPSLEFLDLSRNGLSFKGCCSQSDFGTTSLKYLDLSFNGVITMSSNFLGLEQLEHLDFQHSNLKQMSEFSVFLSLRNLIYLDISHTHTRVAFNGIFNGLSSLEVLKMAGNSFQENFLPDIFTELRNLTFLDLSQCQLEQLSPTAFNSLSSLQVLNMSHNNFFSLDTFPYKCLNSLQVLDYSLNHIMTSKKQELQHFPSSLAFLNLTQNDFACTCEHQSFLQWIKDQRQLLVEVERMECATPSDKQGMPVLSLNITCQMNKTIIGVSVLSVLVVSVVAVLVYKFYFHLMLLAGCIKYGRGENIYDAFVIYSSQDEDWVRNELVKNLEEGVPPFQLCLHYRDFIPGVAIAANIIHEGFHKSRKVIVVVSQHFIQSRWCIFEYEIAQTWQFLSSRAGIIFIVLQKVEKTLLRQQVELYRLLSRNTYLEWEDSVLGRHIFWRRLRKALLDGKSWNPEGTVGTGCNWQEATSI

Structure (SMILES): CC(=O)N[C@H]1[C@H](Oc2ccc([N+](=O)[O-])cc2)O[C@H](CO)[C@@H](O)[C@@H]1O [Compound 8, p-Nitrophenyl 2-acetamido-2-deoxy-β-D-glucopyranoside]
- protection against LPS induced lung injury ([1]; 10 mg/kg at 4 h and 12 h post LPS): significant protection
- LPS-induced lung inflammation ([1]; 10 mg/kg, mice): ameliorated
- monocyte differentiation into macrophages (THP-1 cells): stimulated
- intracellular killing of bacteria (THP-1 cells; Pseudomonas aeruginosa, THP-1 cells): increased
- phagocytosis of Pseudomonas aeruginosa (THP-1 cells; THP-1 cells): increased
- production of IFN-α (TLR9): downregulates
- production of IL-6 cytokine (TLR6): upregulates
- cytotoxicity in hPBMC (hPBMC): not toxic
- TLR2/4 antagonist or TLR4 agonist activity as shown in Table-1 (TLR4): potent TLR2/4 antagonists
- hyperoxia induced BPD in mouse pups (neonatal pups with BPD; IP and IV, saline solution, 5 mg/kg or 10 mg/kg on PN2 and PN4): prevent
- chord length, septal thickness and radial alveolar count of mouse lungs (neonatal pups with BPD; IP injection): improvement
- inflammatory cytokines in lung tissue and serum (neonatal pups with BPD; after injection): decreased
